From patent publication US20240190849A1, “AMINOPYRIMIDINE COMPOUNDS AND METHODS OF THEIR USE” (TYRA BIOSCIENCES, INC., priority 2021, published 2024) come the findings set out here.

SMILES strings stand for the structures.

For experiment [1], the system named is SNU-16 (Gastric Carcinoma), FGFR2 amplification. Nature of the experiment: Cancer cell viability assay (Cell Titer-Glo), SNU-16. The experiment is classed as cell-based. Conditions: Homo sapiens, SNU-16 cells, 72 hours, read-out: SNU16 FGFR2 (IC50 nM). The text has this:
RT112/84, UM-UC-14, SNU-16 and KG-1 Cancer Cell Line Cell Viability Assays
To detect the change of intracellular ATP by Cell Titer-Glo@ and to evaluate the inhibitory effect of the compounds on cancer cell lines by determining the in vitro IC50 value of the compounds.
Cell Titer-Glo@ 2.0 Luminescent cell viability assay reagent was purchased from Promega (Madison, WI). RT112/84, SNU-16, and KG-1 cell lines were purchased from American Type Culture Collection (Manassas, VA). UM-UC-14 cell line was purchased from Sigma (St. Louis, MO). RT112/84, UM-UC-14, SNU-16, and KG-1 cells were cultured in RPMI1640 media supplemented with 10% fetal bovine serum. Cultures were maintained at 37° C. in a humidified atmosphere of 5% CO2 and 95% air.
Cell Viability Assay Procedure: Cells were plated in 96-well clear bottom/white plates (Corning #3903) at 10,000 cells/well in 100 μl of media, incubated overnight. The next day, test compound DMSO stock solutions were made at 10 mM and 2 μM final concentration. Compounds were then added to cells in a 9-dose, […] dilution series starting at 30 μM with an HP 300e Digital Dispenser (each dose was applied in triplicate). DMSO was backfilled to each well up to 301 nL total volume of test compound+DMSO, and a total of 301 nL DMSO was added to a control/no test compound well in triplicate. The cells in cell culture plates were incubated with the compounds at 37° C. and 5% CO2 for 72 hours. Then 50 μl of Cell Titer Glo 2.0 reagent was added to each well of the cell culture plates. The contents were covered from light and mixed on an orbital shaker at room temperature for 10 min. Luminescence was recorded by a Synergy H1 Microplate Reader (Biotek, Winooski, VT). Cells were assessed as a percentage of DMSO only treated control cells. Curves were plotted and IC50 values were calculated using the GraphPad Prism 8 program based on a sigmoidal dose-response equation (4 parameter).

The target in another experiment is T1, FGFR1 (Homo sapiens, UniProt P11362).
T1 construct: made in house; host or cells: E. coli derived from BL21, infected with T7 phage
T1 sequence (P11362 22-822): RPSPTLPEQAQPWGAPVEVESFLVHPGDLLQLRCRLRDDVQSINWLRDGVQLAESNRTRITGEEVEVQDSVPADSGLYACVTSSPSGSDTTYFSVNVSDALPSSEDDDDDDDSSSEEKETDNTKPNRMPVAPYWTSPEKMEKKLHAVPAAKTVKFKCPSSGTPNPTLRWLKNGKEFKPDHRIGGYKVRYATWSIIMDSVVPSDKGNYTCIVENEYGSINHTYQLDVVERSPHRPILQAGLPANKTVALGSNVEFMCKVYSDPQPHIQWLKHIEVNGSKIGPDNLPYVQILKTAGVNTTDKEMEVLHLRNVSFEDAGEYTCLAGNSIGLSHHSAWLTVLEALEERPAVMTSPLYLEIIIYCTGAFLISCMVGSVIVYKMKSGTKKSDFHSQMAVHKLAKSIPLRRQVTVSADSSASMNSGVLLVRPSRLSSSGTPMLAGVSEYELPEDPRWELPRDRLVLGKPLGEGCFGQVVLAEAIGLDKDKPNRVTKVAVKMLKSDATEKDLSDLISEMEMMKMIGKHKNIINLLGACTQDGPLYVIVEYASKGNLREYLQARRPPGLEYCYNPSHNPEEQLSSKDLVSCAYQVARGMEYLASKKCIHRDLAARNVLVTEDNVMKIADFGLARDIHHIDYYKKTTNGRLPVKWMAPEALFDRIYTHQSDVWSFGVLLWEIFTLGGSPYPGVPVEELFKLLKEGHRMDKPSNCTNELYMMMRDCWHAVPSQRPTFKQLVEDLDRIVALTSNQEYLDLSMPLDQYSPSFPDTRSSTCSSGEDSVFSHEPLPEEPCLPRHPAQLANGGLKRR
Description: Kinase binding assay (kinase-tagged T7 phage, affinity beads, qPCR readout), FGFR1. The conditions noted are these: FGFR binding data. In short, it runs like this:
(§1)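 Kd values derive from Hill-equation fits (slope −1, Levenberg-Marquardt) of qPCR-quantified kinase recovered from ligand-coated beads. Compounds ran as 11-point 3-fold series, final DMSO 0.9%, with 1 hour room-temperature binding.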
For orientation: Real-time PCR tracks product formation cycle by cycle.

Another experiment deals with T2, FGFR3 (Homo sapiens, UniProt P22607).
T2 construct: made in house; host or cells: E. coli derived from BL21, infected with T7 phage
T2 sequence (P22607 23-806): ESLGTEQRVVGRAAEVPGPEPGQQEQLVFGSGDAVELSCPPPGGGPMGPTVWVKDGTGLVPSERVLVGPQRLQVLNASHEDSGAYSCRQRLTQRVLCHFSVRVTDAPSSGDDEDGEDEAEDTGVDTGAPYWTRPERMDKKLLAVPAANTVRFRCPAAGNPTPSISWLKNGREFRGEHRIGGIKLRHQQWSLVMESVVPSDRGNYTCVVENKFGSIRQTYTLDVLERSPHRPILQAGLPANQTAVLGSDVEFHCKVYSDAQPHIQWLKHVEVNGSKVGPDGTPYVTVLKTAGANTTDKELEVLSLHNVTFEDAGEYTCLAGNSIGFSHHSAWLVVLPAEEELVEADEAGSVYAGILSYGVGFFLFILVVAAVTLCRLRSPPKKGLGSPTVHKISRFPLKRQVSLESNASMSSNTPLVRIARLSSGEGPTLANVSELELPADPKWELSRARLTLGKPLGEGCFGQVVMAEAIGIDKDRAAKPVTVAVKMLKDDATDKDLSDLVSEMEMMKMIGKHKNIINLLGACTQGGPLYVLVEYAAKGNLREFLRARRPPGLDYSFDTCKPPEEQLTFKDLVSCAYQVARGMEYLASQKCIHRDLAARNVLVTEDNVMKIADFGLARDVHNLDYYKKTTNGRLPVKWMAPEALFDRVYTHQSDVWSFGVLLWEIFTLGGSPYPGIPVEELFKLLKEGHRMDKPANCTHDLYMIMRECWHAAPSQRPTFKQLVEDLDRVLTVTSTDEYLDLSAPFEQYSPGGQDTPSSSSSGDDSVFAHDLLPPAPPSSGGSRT
Description: Kinase binding assay (kinase-tagged T7 phage, affinity beads, qPCR readout), FGFR3. The conditions noted are these: FGFR binding data. In short, it runs like this:
as §1

For the next experiment, the target named is T3, FGFR2 (Homo sapiens, UniProt P21802).
T3 construct: made in house; host or cells: E. coli derived from BL21, infected with T7 phage
T3 sequence (P21802 22-821): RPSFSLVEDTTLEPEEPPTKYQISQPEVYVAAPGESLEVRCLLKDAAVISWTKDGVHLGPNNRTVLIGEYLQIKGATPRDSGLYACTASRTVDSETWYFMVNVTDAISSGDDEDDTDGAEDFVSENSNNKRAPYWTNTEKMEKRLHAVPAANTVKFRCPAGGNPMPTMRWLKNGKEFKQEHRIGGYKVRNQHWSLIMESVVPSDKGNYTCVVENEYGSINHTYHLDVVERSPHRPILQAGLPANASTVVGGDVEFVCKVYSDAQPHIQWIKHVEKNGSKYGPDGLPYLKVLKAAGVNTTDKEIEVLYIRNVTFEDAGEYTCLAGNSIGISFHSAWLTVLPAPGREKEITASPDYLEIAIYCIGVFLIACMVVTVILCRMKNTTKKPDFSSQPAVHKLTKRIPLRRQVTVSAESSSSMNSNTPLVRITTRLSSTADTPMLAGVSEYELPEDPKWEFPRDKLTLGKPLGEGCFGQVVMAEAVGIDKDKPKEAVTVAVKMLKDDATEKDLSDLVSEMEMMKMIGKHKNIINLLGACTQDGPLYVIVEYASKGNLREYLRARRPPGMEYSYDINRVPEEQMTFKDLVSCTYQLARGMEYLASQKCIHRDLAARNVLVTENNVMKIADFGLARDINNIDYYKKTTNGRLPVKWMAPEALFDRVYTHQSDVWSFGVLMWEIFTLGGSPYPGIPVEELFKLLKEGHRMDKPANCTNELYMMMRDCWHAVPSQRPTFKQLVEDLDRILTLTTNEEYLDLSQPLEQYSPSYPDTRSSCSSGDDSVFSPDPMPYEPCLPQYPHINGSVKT
Nature of the experiment: Kinase binding assay (kinase-tagged T7 phage, affinity beads, qPCR readout), FGFR2. Conditions: FGFR binding data. In short, it runs like this:
as §1

The target of the next experiment is T4, FGFR3 (V555M) (Homo sapiens, UniProt P22607, V555M).
T4 construct: made in house; host or cells: E. coli derived from BL21, infected with T7 phage
T4 sequence (P22607 23-806 V555M): as the sequence (P22607 23-806) above, with V533M counted along it
Nature of the experiment: Kinase binding assay (kinase-tagged T7 phage, affinity beads, qPCR readout), FGFR3 (V555M). The conditions noted are these: FGFR binding data. In short, it runs like this:
as §1

As usually defined, the IC50 is the concentration that gives 50% inhibition. One may read the Kd as the concentration at which binding is half-saturated. A higher Kd goes with lower affinity. As for `C=CC(=O)Nc1cnc2c(c1)c(C)cn2-c1nc(Nc2cnn(CCO)c2)ncc1C` [Example 125, N-[1-[2-[[1-(2-hydroxyethyl)pyrazol-4-yl]amino]-5-methyl-pyrimidin-4-yl]-3-methyl-pyrrolo[2,3-b]pyridin-5-yl]prop-2-enamide], the IC50 in experiment [1] lay within 0.1 to 100 nM. Also, the Kd on FGFR1, on FGFR3, at FGFR2 and on FGFR3 (V555M) was 0.1 to 100 nM in each case.

On to `C=CC(=O)Nc1ccc2c(-c3nc(Nc4cnn(CCO)c4)ncc3C)cn(C)c2c1` [Example 126, N-[3-[2-[[1-(2-hydroxyethyl)pyrazol-4-yl]amino]-5-methyl-pyrimidin-4-yl]-1-methyl-indol-6-yl]prop-2-enamide], for which the IC50 in experiment [1] is 0.1 to 100 nM. In addition, the Kd on FGFR1, on FGFR3, at FGFR2 and at FGFR3 (V555M) was 0.1 to 100 nM each time.

Regarding `C=CC(=O)Nc1ccc2c(-c3nc(Nc4cnn(CCO)c4)ncc3Cl)cn(C)c2c1` [Example 127, N-[3-[5-chloro-2-[[1-(2-hydroxyethyl)pyrazol-4-yl]amino]pyrimidin-4-yl]-1-methyl-indol-6-yl]prop-2-enamide], the IC50 in experiment [1] is 0.1 to 100 nM. In addition, the Kd on FGFR1, on FGFR3, at FGFR2 and at FGFR3 (V555M) was 0.1 to 100 nM in each case.

On to `C=CC(=O)Nc1ccc2c(-c3nc(Nc4cnn(CCO)c4)ncc3F)cn(C)c2c1` [Example 128, N-[3-[5-fluoro-2-[[1-(2-hydroxyethyl)pyrazol-4-yl]amino]pyrimidin-4-yl]-1-methyl-indol-6-yl]prop-2-enamide], for which the IC50 in experiment [1] lay in the range of 0.1 to 100 nM. Besides, the Kd on FGFR1, on FGFR3, at FGFR2 and at FGFR3 (V555M) was 0.1 to 100 nM throughout.

Consider `Cc1cn(-c2nc(Nc3cnn(CCO)c3)ncc2F)c2ccc(NC(=O)/C=C/CN(C)C)cc12` [Example 144, (E)-4-(dimethylamino)-N-[1-[5-fluoro-2-[[1-(2-hydroxyethyl)pyrazol-4-yl]amino]pyrimidin-4-yl]-3-methyl-indol-5-yl]but-2-enamide], for which the IC50 in experiment [1] is 0.1 to 100 nM. The Kd at FGFR1, on FGFR3, at FGFR2 and on FGFR3 (V555M) was 0.1 to 100 nM in each case.

As to `C=CC(=O)Nc1ccc2c(c1)c(C)cn2-c1nc(Nc2cnn(C)c2C)ncc1C` [Example 147, N-[1-[2-[(1,5-dimethylpyrazol-4-yl)amino]-5-methyl-pyrimidin-4-yl]-3-methyl-indol-5-yl]prop-2-enamide], the IC50 in experiment [1] lay in the range of 0.1 to 100 nM. For the same compound, the Kd at FGFR1, on FGFR3, on FGFR2 and at FGFR3 (V555M) was 0.1 to 100 nM each time.

`C=CC(=O)Nc1ccc2c(c1)c(C)cn2-c1nc(Nc2cnsc2)ncc1F` [Example 148, N-[1-[5-fluoro-2-(isothiazol-4-ylamino)pyrimidin-4-yl]-3-methyl-indol-5-yl]prop-2-enamide]: the IC50 in experiment [1] is 0.1 to 100 nM. Besides, the Kd on FGFR1, on FGFR3, on FGFR2 and on FGFR3 (V555M) was 0.1 to 100 nM in each case.

As to `C=CC(=O)Nc1ccc2c(c1)c(C)cn2-c1nc(Nc2cn(C(F)F)nc2C)ncc1F` [Example 149, N-[1-[2-[[1-(difluoromethyl)-3-methyl-pyrazol-4-yl]amino]-5-fluoro-pyrimidin-4-yl]-3-methyl-indol-5-yl]prop-2-enamide], the IC50 in experiment [1] is 0.1 to 100 nM. In addition, the Kd at FGFR1 was in the range of 100 to 250 nM; at FGFR3, 0.1 to 100 nM; at FGFR2 it was 0.1 to 100 nM; at FGFR3 (V555M) it was 0.1 to 100 nM.

Turning to `C=CC(=O)Nc1ccc2c(c1)c(C)cn2-c1nc(Nc2cnc(C)nc2C)ncc1F` [Example 150, N-[1-[2-[(2,4-dimethylpyrimidin-5-yl)amino]-5-fluoro-pyrimidin-4-yl]-3-methyl-indol-5-yl]prop-2-enamide], in experiment [1], the IC50 is 0.1 to 100 nM. Moreover, the Kd at FGFR1 was 250 to 1000 nM; at FGFR3, 0.1 to 100 nM; at FGFR2 it was 0.1 to 100 nM; at FGFR3 (V555M) it was 100 to 250 nM.

For `C=CC(=O)Nc1ccc2c(c1)c(C)cn2-c1nc(Nc2cccnc2C)ncc1F` [Example 153, N-[1-[5-fluoro-2-[(2-methyl-3-pyridyl)amino]pyrimidin-4-yl]-3-methyl-indol-5-yl]prop-2-enamide], the IC50 in experiment [1] was in the range of 0.1 to 100 nM. For the same compound, the Kd on FGFR1 was 250 to 1000 nM; at FGFR3 it was 0.1 to 100 nM; at FGFR2, 100 to 250 nM; at FGFR3 (V555M), 0.1 to 100 nM.

As to `C=CC(=O)Nc1ccc2c(-c3nc(Nc4cn(C)nc4C)ncc3F)cn(C)c2c1` [Example 154, N-[3-[2-[(1,3-dimethylpyrazol-4-yl)amino]-5-fluoro-pyrimidin-4-yl]-1-methyl-indol-6-yl]prop-2-enamide], in experiment [1], the IC50 was in the range of 0.1 to 100 nM. Also, the Kd at FGFR1 was 250 to 1000 nM; on FGFR3, 0.1 to 100 nM; at FGFR2, 0.1 to 100 nM; at FGFR3 (V555M), 0.1 to 100 nM.

With `C=CC(=O)Nc1ccc2c(c1)c(C)cn2-c1nc(Nc2cn(CC)nc2C)ncc1F` [Example 156, N-[1-[2-[(1-ethyl-3-methyl-pyrazol-4-yl)amino]-5-fluoro-pyrimidin-4-yl]-3-methyl-indol-5-yl]prop-2-enamide], the IC50 in experiment [1] was 0.1 to 100 nM. In addition, the Kd on FGFR1, at FGFR3, on FGFR2 and at FGFR3 (V555M) was 0.1 to 100 nM each time.

As for `C=CC(=O)Nc1ccc2c(c1)c(C)cn2-c1nc(Nc2cnn(CC(C)O)c2)ncc1F` (centres unmarked) [Example 158, N-[1-[5-fluoro-2-[[1-(2-hydroxypropyl)pyrazol-4-yl]amino]pyrimidin-4-yl]-3-methyl-indol-5-yl]prop-2-enamide], in experiment [1], the IC50 fell in the range of 0.1 to 100 nM. The Kd at FGFR1, at FGFR3, on FGFR2 and at FGFR3 (V555M) was 0.1 to 100 nM in each case.

On to `C=CC(=O)Nc1ccc2c(c1)c(C)cn2-c1nc(Nc2cn(CC(F)F)nc2C)ncc1F` [Example 164, N-[1-[2-[[1-(2,2-difluoroethyl)-3-methyl-pyrazol-4-yl]amino]-5-fluoro-pyrimidin-4-yl]-3-methyl-indol-5-yl]prop-2-enamide], for which the IC50 in experiment [1] fell in the range of 0.1 to 100 nM. In addition, the Kd at FGFR1, at FGFR3, on FGFR2 and at FGFR3 (V555M) was 0.1 to 100 nM each time.

For the compound `C=CC(=O)Nc1ccc2c(c1)c(C)cn2-c1nc(Nc2cn(CC(F)(F)F)nc2C)ncc1F` [Example 165, N-[1-[5-fluoro-2-[[3-methyl-1-(2,2,2-trifluoroethyl)pyrazol-4-yl]amino]pyrimidin-4-yl]-3-methyl-indol-5-yl]prop-2-enamide], the IC50 in experiment [1] lay within 0.1 to 100 nM. The Kd at FGFR1, at FGFR3, on FGFR2 and at FGFR3 (V555M) was 0.1 to 100 nM each time.

Take `C=CC(=O)Nc1ccc2c(c1)c(C)cn2-c1nc(Nc2cnn(CC3(O)CC3)c2)ncc1F` [Example 175, N-[1-[5-fluoro-2-[[1-[(1-hydroxycyclopropyl)methyl]pyrazol-4-yl]amino]pyrimidin-4-yl]-3-methyl-indol-5-yl]prop-2-enamide]: the IC50 in experiment [1] lay in the range of 0.1 to 100 nM. The Kd at FGFR1, at FGFR3, on FGFR2 and at FGFR3 (V555M) was 0.1 to 100 nM in each case.
